For 42 compounds, AC50 and EC50 results are on record in ChEMBL document CHEMBL1201862, “PubChem BioAssay data set” (2004).

Values joined by “and” are separate entries in the source; they are usually repeats but may differ in a detail not shown here. Equal values may be shown once. Active and inactive are the calls of the source.

Data set [1] deals with Cytochrome P450 2C19 (Homo sapiens, UniProt P33261). Put plainly: Cytochrome panel assay with activity outcomes. Panel member name: p450-cyp2c19 Compounds with AC50 equal or less than 10 uM are considered active. Format: functional.
Sequence of Cytochrome P450 2C19 (P33261 whole entry): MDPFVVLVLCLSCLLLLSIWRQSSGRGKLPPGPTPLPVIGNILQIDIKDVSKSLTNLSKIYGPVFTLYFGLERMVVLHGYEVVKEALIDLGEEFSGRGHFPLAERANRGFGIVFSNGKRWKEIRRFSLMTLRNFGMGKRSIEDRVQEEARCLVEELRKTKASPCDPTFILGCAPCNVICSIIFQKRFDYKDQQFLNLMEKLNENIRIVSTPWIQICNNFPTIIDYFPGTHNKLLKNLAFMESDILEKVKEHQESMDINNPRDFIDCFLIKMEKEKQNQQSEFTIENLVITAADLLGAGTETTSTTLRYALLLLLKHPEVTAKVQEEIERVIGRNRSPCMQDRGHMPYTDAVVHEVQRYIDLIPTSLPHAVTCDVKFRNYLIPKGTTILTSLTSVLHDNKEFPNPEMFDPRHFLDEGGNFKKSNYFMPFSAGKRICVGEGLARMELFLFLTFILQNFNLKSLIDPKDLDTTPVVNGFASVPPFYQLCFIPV
Data set [2] concerns the target Cytochrome P450 2C9 (Homo sapiens, UniProt P11712).
Data set [3] has as its target T1, Heat shock factor protein 1 (Mus musculus, UniProt P38532).
T1 sequence (P38532 whole entry): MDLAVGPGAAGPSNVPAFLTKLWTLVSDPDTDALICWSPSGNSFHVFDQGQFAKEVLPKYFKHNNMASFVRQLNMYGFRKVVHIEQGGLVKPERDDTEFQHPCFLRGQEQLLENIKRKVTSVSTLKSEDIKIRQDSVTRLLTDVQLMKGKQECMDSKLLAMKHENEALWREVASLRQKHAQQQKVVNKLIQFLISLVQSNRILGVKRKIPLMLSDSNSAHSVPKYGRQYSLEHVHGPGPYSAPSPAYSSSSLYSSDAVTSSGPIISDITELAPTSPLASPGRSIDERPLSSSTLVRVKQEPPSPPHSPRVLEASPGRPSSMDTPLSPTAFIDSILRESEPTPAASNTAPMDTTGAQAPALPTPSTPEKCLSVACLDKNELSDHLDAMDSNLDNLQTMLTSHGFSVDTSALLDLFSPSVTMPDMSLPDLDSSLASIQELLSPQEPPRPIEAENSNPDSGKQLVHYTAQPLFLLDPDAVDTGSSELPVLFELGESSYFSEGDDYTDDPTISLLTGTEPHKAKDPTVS
The experiment in a line: inhibition of MG132-induced HSE-luciferase signal, confirmation, cell-based, NIH3T3, luminescence, dose retest (AID 2382).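 Also: NIH3T3 fibroblasts with HSF1-driven luciferase reporter stressed by proteasome inhibitor MG132; luminescence from HSF1-driven luciferase expression after 8 hours of MG132 stress.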 Format: functional.

Data set [4] concerns Streptococcus sp. 'group A'. The experiment in a line: growth inhibition of control SK(-) GAS strain, dose response, counter-screen for streptokinase expression inhibitor project, luminescence, kanamycin, BacTiterGlo, confirmation (AID 1900). In kind it is functional, organism-based.
For data set [5], the target named is T2, Streptokinase A (Streptococcus pyogenes serotype M1, UniProt P10520).
T2 sequence (P10520 whole entry): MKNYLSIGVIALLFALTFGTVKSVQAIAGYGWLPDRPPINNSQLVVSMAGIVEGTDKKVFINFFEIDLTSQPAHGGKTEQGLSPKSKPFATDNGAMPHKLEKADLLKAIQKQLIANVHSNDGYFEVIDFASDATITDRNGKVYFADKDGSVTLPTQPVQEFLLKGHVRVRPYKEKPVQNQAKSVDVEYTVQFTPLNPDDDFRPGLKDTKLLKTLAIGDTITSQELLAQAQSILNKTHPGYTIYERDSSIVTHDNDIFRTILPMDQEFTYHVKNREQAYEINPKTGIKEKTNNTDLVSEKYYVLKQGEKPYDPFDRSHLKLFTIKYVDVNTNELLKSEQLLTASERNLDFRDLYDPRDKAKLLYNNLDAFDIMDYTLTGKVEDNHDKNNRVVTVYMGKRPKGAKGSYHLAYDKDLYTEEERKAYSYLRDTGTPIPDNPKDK
Put plainly: S. pyogenes streptokinase expression inhibitors, potency, dose response, plasminogen activation absorbance, OD405 (AID 1914).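 Also: secreted streptokinase activity via plasminogen activation per viability signal from cell pellet.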 In kind it is functional, Streptococcus pyogenes M1 GAS.

The test system of data set [6] is Streptococcus. Put plainly: Group A Streptococcus viability loss, dose response, counter-screen for streptokinase expression inhibitor project, luminescence, BacTiterGlo (AID 1915).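 Also: potency for reduction of bacterial viability or growth.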 Format: functional, organism-based.
In data set [7] the target is Cytochrome P450 3A4 (Homo sapiens, UniProt P08684).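 Also: CYP3A4 tested as one member of a cytochrome P450 panel screen.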
Sequence of Cytochrome P450 3A4 (P08684 whole entry): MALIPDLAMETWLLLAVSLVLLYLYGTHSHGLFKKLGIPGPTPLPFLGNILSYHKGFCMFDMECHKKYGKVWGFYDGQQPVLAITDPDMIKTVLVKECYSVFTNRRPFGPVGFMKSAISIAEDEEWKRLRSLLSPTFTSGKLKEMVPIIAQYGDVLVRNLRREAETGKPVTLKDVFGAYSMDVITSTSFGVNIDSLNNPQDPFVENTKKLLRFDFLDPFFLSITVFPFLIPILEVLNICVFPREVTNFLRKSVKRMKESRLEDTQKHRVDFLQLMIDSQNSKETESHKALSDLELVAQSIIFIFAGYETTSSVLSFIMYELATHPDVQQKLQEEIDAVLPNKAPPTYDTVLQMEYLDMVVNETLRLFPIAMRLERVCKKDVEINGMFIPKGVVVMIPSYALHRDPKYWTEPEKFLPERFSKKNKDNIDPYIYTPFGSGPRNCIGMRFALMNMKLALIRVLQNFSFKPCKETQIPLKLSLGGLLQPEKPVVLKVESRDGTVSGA
The target in data set [8] is T3, Cytochrome P450 1A2 (Homo sapiens, UniProt P05177).
T3 sequence (P05177 whole entry): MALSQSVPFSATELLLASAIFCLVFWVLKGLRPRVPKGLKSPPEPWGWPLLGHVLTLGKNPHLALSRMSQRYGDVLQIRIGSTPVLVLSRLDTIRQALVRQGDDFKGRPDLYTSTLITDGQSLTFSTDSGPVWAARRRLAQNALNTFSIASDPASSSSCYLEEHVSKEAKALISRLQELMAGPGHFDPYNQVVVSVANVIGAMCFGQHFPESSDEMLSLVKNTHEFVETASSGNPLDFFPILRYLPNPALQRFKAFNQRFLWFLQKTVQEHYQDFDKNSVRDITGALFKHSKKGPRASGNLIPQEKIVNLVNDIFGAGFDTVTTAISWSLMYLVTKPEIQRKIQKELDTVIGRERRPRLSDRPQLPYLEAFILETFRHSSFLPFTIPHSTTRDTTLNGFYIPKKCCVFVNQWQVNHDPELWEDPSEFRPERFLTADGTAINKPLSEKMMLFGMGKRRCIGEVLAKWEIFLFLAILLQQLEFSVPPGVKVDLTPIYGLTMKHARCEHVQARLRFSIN

The target of data set [9] is Cytochrome P450 2D6 (Homo sapiens, UniProt P10635).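 Also: CYP2D6 member of a cytochrome P450 panel assay.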
Sequence of Cytochrome P450 2D6 (P10635 whole entry): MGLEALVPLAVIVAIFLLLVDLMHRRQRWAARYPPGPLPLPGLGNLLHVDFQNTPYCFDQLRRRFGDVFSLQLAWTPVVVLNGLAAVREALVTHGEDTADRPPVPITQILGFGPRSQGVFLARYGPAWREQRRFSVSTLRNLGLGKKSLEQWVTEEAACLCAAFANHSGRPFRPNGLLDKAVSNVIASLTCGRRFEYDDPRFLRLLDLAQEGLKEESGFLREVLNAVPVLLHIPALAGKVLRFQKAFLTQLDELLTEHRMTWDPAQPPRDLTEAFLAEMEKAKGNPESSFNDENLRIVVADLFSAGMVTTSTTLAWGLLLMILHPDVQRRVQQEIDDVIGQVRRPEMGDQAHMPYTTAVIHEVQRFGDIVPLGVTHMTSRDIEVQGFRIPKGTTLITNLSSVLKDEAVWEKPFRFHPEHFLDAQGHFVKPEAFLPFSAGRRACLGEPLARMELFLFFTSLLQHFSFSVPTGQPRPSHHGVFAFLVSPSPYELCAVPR
The test system of data set [10] is H4. The experiment in a line: Luminescence Cell-Based Dose Response HTS to Identify Activators of 5'UTR Stem-Loop Driven Prion Protein mRNA Translation in H4 Neuroglioblastoma Cells. [Related pubchem assays: 1829 (Project Summary), 1814 (Primary HTS)]. In kind it is functional. Particulars: Homo sapiens.
Data set [11] is described as follows: Luminescence Cell-Based Dose Response HTS to Identify Activators of Luciferase Translation or Activity in H4 […] Cells. [Related pubchem assays: 1829 (Project Summary), 1814 (Primary HTS)]. In kind it is functional.

Sequence of Cytochrome P450 2C9 (P11712 whole entry): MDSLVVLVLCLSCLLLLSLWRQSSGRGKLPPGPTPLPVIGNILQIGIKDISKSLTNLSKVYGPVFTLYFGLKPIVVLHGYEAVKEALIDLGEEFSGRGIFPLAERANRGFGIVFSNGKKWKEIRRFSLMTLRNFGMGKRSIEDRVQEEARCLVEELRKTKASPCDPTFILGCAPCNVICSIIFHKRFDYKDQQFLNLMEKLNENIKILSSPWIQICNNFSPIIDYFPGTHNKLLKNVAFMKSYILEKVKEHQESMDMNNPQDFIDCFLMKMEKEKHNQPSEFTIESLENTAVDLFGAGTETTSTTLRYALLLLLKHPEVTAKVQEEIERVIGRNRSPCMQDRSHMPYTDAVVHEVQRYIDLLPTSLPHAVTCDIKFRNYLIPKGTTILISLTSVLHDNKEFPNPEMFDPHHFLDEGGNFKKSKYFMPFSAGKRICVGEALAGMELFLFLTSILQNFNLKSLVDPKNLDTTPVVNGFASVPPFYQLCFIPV

In the case of `COc1ccc(N2CC(C(=O)OCC(=O)c3cccc(OC)c3)CC2=O)cc1` (stereo not drawn), the half-maximal activity concentration (AC50) in data set [1] (read-out: AC50) was 8.91 µM (inconclusive).

In the case of `Cc1ncc(CSC(=N)N)n1Cc1ccccc1`, the concentration at half-maximal activity (AC50) in [1] (read-out: AC50) was 7.94 µM (inconclusive).

As to `CCOC(=O)Nc1nc(-c2ccccc2)c(C)s1`, the results for the AC50 in [1] (read-out: AC50) and in data set [2] were 3.98 µM (inconclusive) and 7.94 µM (inconclusive), respectively.

Consider `CSc1cccc(NC(=S)N2CCC(N(C)C3CCCC3)CC2)c1`, for which the EC50 in [3] was > 195 µM (not active).

`COc1ccc(C(C)N=C(S)NC2CCCCC2)cc1OC` (stereo not drawn): the EC50 in [3] is > 195 µM (not active).

As for `FC(F)(F)c1cc(-c2ccccc2)nc(N2CCCCCC2)n1`, the EC50 in data set [4] is 4.27 µM (active); in [5], 5.14 µM (active); in data set [6] it was 14.3 µM (active).

As for `COc1ccc(N2CCN(C(=O)Cc3csc(NC(=O)Nc4ccccc4OC)n3)CC2)cc1`, the EC50 was > 150 µM (not active) in data set [4], > 150 µM (not active) in data set [5] and 32.7 µM (active) in data set [6].

`O=C(Nc1nc(-c2ccccn2)cs1)C12CC3CC(CC(O)(C3)C1)C2`: the half-maximal effective concentration (EC50) in data set [4], in data set [5] and in data set [6] was > 150 µM (not active) in each case.

For `CC(=O)c1cc(C)ccc1OC(=O)CCN1C(=O)C2C3c4ccccc4C(c4ccccc43)C2C1=O` (stereo not drawn), the AC50 in data set [1] (read-out: AC50) was 10 µM (inconclusive); in [7] it was 31.6 µM (inconclusive).

For `O=C(NC1CCCCC1)C(c1ccco1)N(C(=O)c1csnn1)c1ccc(Cl)cc1` (stereo not drawn), the half-maximal effective concentration (EC50) in data set [3] is listed as > 195 µM (not active).

With `Cc1ccc(C(=O)N(CN2CCCC2=O)c2ccccc2)cc1C`, the AC50 in data set [2] is 0.00562 µM (inconclusive); in data set [8] it was 5.01 µM (inconclusive).

`COc1cc(Cn2cnnn2)ccc1O`: the half-maximal activity concentration (AC50) in data set [2] was 0.178 µM (inconclusive); in data set [8] it was 39.8 µM (inconclusive).

On to `Cc1ccc(C2=NN(S(C)(=O)=O)C(c3cccs3)C2)cc1` (stereo not drawn), for which the AC50 is 14.1 µM (inconclusive) in data set [9] and 31.6 µM (inconclusive) in data set [8].

`COc1cc(NC(=O)n2ncc3cc(Cl)ccc32)cc(OC)c1`: the EC50 in data set [10] was 12.5 µM (active); in [11] it was 17.4 µM (active).

Regarding `COc1ccc(C(=O)N2CCCC(Nc3ccc(C)c(C)c3)C2)cc1F` (stereo not drawn), the EC50 in [4], in data set [5] and in data set [6] was > 150 µM (not active) throughout.

Turning to `COc1ccccc1CNc1ccnc(-c2ccc(C(=O)N(C)C)cc2)n1`, the AC50 in data set [1] (read-out: AC50) and in [9] was 39.8 µM (inconclusive) each time.

On to `CCCC(=O)Nc1c(C)n[nH]c1C`, for which the AC50 in [1] (read-out: AC50) is 3.98 µM (inconclusive).

With `COC(=O)CCCC1=CC2=C(c3ccccc3)C(=O)C(C)(OC(=O)C3CCCC3)C(=O)C2=CN1c1ccc(OC)cc1` (stereo not drawn), in data set [3], the EC50 is recorded as > 195 µM (not active).

Turning to `Cc1ccc(OCC(=O)NNC(=O)CCC(=O)Nc2ccc(C)cc2C)cc1`, the AC50 entry in data set [1] was “inconclusive”.

For `COC(=O)[C@H](C)NC(=O)NCCC1=CCCCC1`, the EC50 in data set [3] is listed as > 195 µM (not active).

In the case of `Cc1ccccc1N1CCN(C(=O)c2ccccc2NC(=O)/C=C\C(=O)O)CC1`, in [1] (read-out: AC50), the AC50 is 28.2 µM (inconclusive).

`OC1/C(=C/c2ccccc2C(F)(F)F)N2CCC1CC2` (stereo not drawn): the EC50 in data set [3] is > 195 µM (not active).

`N[C@@H](C(=O)O)c1ccc(P(=O)(O)O)cc1`: the AC50 in data set [2] was 31.6 µM (inconclusive); in [8] it was 20 µM (inconclusive).

As for `Cc1ccc(/C=C2/Sc3ccc(C(=O)N4CCN(C)CC4)cc3NC2=O)cc1`, the EC50 in [4] is 7.17 µM (active); in [5], > 150 µM (not active); in data set [6], 14.2 µM (active).

For `Sc1nnc(-c2ccncc2)n1Cc1ccco1`, the EC50 in [3] is > 195 µM (not active).

For the compound `CCOC(=O)C(=NC(C)(C)C)NNc1cc(Cl)ccc1Cl`, the EC50 was 4.52 µM (active) in data set [4], 7.59 µM (active) in data set [5] and 21.1 µM (active) in data set [6].

Take `CCn1c(O)c(C(c2ccccn2)c2c(O)n(CC)c(=S)[nH]c2=O)c(=O)[nH]c1=S`: the values for the AC50 in data set [1] (read-out: AC50) and in data set [2] were 0.00562 µM (inconclusive) and 31.6 µM (inconclusive), respectively.

For `O=C(NCCCN1CCC(Cc2ccccc2)CC1)C1CC(=O)N(C2CCCC2)C1` (stereo not drawn), the EC50 in data set [3] is > 195 µM (not active).

Consider `CC(=O)C1C(c2ccccc2OC(F)F)NC(=O)NC1(O)C(F)(F)F` (stereo not drawn), for which the AC50 in data set [2] was 15.8 µM (inconclusive); in data set [8] it was 5.01 µM (inconclusive).

As to `COc1ccc(N2CCN(C(=O)c3cccc(Br)c3)CC2)c([N+](=O)[O-])c1`, the EC50 in data set [3] was > 195 µM (not active).

For the compound `COc1ccccc1NC(=O)COC(=O)c1ccc(S(=O)(=O)NCc2ccco2)cc1`, the AC50 was 11.2 µM (inconclusive) in [9] and 12.6 µM (inconclusive) in data set [8].

As for `COc1cc(C(=O)NC(=S)Nc2cccc(-c3cc4ccccc4oc3=O)c2)cc(OC)c1OC`, the AC50 in [8] was 2.82 µM (inconclusive).

Turning to `COc1cccc(-c2cccc(NC(=O)C3CCN(Cc4ccon4)CC3)c2)c1`, the EC50 in data set [3] is given as > 195 µM (not active).

As to `COc1ccccc1N1CCN(C(c2ccc(N(C)C)cc2)c2nnnn2CCc2ccccc2)CC1` (stereo not drawn), the EC50 in data set [3] is > 195 µM (not active).

Turning to `O=C(O)[C@H]([C@H]1NCCS1)N1C(=O)c2ccccc2C1=O`, the AC50 in [8] is 5.01 µM (inconclusive).

With `Oc1ccccc1/C=N/NC(=S)NC1CC2CCC1C2` (stereo not drawn), the EC50 is 4.8 µM (active) in data set [4], > 150 µM (not active) in [5] and 8.53 µM (active) in [6].

Regarding `CCCOc1ccc(N2C(=O)CC(SC(=N)N/N=C(\C)c3cccs3)C2=O)cc1` (stereo not drawn), the AC50 in data set [9] and in data set [8] was 15.8 µM (inconclusive) each time.

As to `CC(C)c1c(C(=O)N/N=C/c2cccc(OCc3ccc(F)cc3)c2)nnn1-c1nonc1N`, the EC50 in data set [4] was 4.9 µM (active); in data set [5] it was 2.1 µM (active); in data set [6], 23.1 µM (active).

As to `COc1ccc(C/C(C)=N/NC(=S)Nc2ccccc2F)cc1`, in data set [3], the EC50 was 96.9 µM (active).

Take `S=C(N/N=C/c1ccc(Br)cc1)N1CCCCC1`: the EC50 in data set [10] was 96.7 µM (active); in data set [11], 0.174 µM (active).

For `CC1=NN=C(c2ccc(N)cc2)c2cc3c(cc2C1)OCO3` [GYKI-52466], the AC50 was 25.1 µM (inconclusive) and 31.6 µM (inconclusive) in data set [9]; 31.6 µM (inconclusive) in [8].

Regarding `CCN(CC)CCOC(=O)[C@@H](Cc1cccc2ccccc12)C[C@@H]1CCCO1` [NAFTIDROFURYL], the AC50 was 5.01 µM (inconclusive) in [9] and 10 µM (inconclusive) in data set [8].
